{"source": "patent US20180200275A1", "about": "“METHOD AND THE USE TO IMPROVE ORAL ABSORPTION OF NICOTINAMIDE AND NICOTINAMIDE RIBOSIDE” (Better Standing Company Inc., priority 2017, published 2018)", "key": {"[1]": {"conditions": "cited from earlier work"}, "[2]": {"assay": "effects noted by a person (the inventor) after oral consumption", "assay_type": "in vivo, human", "conditions": "50 mg nicotinamide or 125 mg N-Ribosylnicotinamide chloride with water only, one person"}}}
{"smiles": "NC(=O)c1cccnc1", "note": "[nicotinamide, 3-pyridinecarboxamide]", "values": [{"measurement": "pKa of the pyridine ring nitrogen atom", "setting": "[1]", "result": 4.14}, {"measurement": "effects of consuming shortly before bed with water only", "setting": "[2]", "result": "no discernible effects"}]}
